Nc1ccc(S(=O)(=O)Nc2ncccn2)cc1
solubility (mole fraction)
Settings	293.15 K	298.15 K	303.15 K	308.15 K	313.15 K
in ethanol	6.26e-06	7.74e-06	9.46e-06	1.17e-05	1.38e-05
in water	3.8e-07	4.81e-07	6.49e-07	8.7e-07	1.14e-06

From BigSolDB 2.1
